In the supplement of paper PMC10307832:

Experiments:
Test in all cases: relative viability (nuclei count vs DMSO), 5 days (fraction); higher = more cells survive
AZD6482 + Navitoclax = compound: Cc1cc([C@@H](C)Nc2ccccc2C(=O)O)c2nc(N3CCOCC3)cc(=O)n2c1 [AZD6482] + CC1(C)CCC(c2ccc(Cl)cc2)=C(CN2CCN(c3ccc(C(=O)NS(=O)(=O)c4ccc(N[C@H](CCN5CCOCC5)CSc5ccccc5)c(S(=O)(=O)C(F)(F)F)c4)cc3)CC2)C1 [Navitoclax] (partner 0.5 µM)
How it was run: (§1)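 Relative viability was taken as the ratio of nuclei in treated wells to nuclei in vehicle wells. Lung cancer cell lines in 1536-well plates received compounds by pin tool one day after seeding, either one drug alone or a fixed anchor-drug dose plus five library-drug doses (not always all listed) in √10 steps. Nuclei were counted on 4× images after 5 days of treatment, and values are medians of duplicate plates.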

AZD6482 + Luminespib = compound: Cc1cc([C@@H](C)Nc2ccccc2C(=O)O)c2nc(N3CCOCC3)cc(=O)n2c1 [AZD6482] + CCNC(=O)c1noc(-c2cc(C(C)C)c(O)cc2O)c1-c1ccc(CN2CCOCC2)cc1 [Luminespib] (partner 0.01 µM)
How it was run: as §1

AZD6482 + Dasatinib = compound: Cc1cc([C@@H](C)Nc2ccccc2C(=O)O)c2nc(N3CCOCC3)cc(=O)n2c1 [AZD6482] + Cc1nc(Nc2ncc(C(=O)Nc3c(C)cccc3Cl)s2)cc(N2CCN(CCO)CC2)n1 [Dasatinib] (partner 0.075 µM)
How it was run: as §1

AZD6482 + AZD7762 = compound: Cc1cc([C@@H](C)Nc2ccccc2C(=O)O)c2nc(N3CCOCC3)cc(=O)n2c1 [AZD6482] + NC(=O)Nc1cc(-c2cccc(F)c2)sc1C(=O)N[C@H]1CCCNC1 [AZD7762] (partner 0.2 µM)
How it was run: as §1

| Cell Line | relative viability (AZD6482 + Navitoclax; first compound 0.08 µM) | relative viability (AZD6482 + Navitoclax; first compound 0.253 µM) | relative viability (AZD6482 + Navitoclax; first compound 0.8 µM) | relative viability (AZD6482 + Navitoclax; first compound 2.53 µM) | relative viability (AZD6482 + Navitoclax; first compound 8 µM) | relative viability (AZD6482 + Luminespib; first compound 0.08 µM) | relative viability (AZD6482 + Luminespib; first compound 0.253 µM) | relative viability (AZD6482 + Luminespib; first compound 0.8 µM) | relative viability (AZD6482 + Luminespib; first compound 2.53 µM) | relative viability (AZD6482 + Luminespib; first compound 8 µM) | relative viability (AZD6482 + Dasatinib; first compound 0.08 µM) | relative viability (AZD6482 + Dasatinib; first compound 0.253 µM) | relative viability (AZD6482 + Dasatinib; first compound 0.8 µM) | relative viability (AZD6482 + Dasatinib; first compound 2.53 µM) | relative viability (AZD6482 + Dasatinib; first compound 8 µM) | relative viability (AZD6482 + AZD7762; first compound 0.08 µM) | relative viability (AZD6482 + AZD7762; first compound 0.253 µM) | relative viability (AZD6482 + AZD7762; first compound 0.8 µM) | relative viability (AZD6482 + AZD7762; first compound 2.53 µM) | relative viability (AZD6482 + AZD7762; first compound 8 µM) |
| --- | --- | --- | --- | --- | --- | --- | --- | --- | --- | --- | --- | --- | --- | --- | --- | --- | --- | --- | --- | --- |
| NCI-H1437 | 1.06 | 1.13 | 1.12 | 0.816 | 0.692 | 1.16 | 1.2 | 1.14 | 0.969 | 1.15 | 0.599 | 0.316 | 0.44 | 0.282 | 0.244 | 1.16 | 1.07 | 1.16 | 1.03 | 0.836 |
| NCI-H1651 | 0.883 | 0.917 | 0.881 | 0.676 | 0.636 | 0.779 | 0.805 | 0.773 | 0.812 | 0.753 | 0.335 | 0.435 | 0.401 | 0.337 | 0.307 | 0.457 | 0.379 | 0.456 | 0.391 | 0.379 |
| NCI-H1666 | 0.794 | 0.846 | 0.706 | 0.749 | 0.528 | 1 | 0.942 | 1.06 | 0.876 | 1.21 | 0.801 | 0.845 | 0.906 | 0.737 | 0.946 | 0.79 | 0.776 | 0.958 | 0.835 | 0.767 |
| NCI-H1734 | 0.73 | 0.604 | 0.726 | 0.449 | 0.776 | 0.194 | 0.167 | 0.164 | 0.163 | 0.205 | 0.459 | 0.406 | 0.424 | 0.267 | 0.338 | 0.533 | 0.504 | 0.556 | 0.303 | 0.367 |
| NCI-H1755 | 0.833 | 0.737 | 0.682 | 0.43 | 0.498 | 0.24 | 0.488 | 0.411 | 0.322 | 0.218 | 0.299 | 0.379 | 0.385 | 0.288 | 0.299 | 0.463 | 0.417 | 0.453 | 0.344 | 0.311 |
| NCI-H1792 | 0.508 | 0.511 | 0.566 | 0.341 | 0.463 | 0.373 | 0.392 | 0.458 | 0.19 | 0.353 | 0.769 | 0.703 | 0.862 | 0.569 | 0.515 | 0.516 | 0.577 | 0.427 | 0.262 | 0.322 |
| NCI-H1793 | 0.29 | 0.23 | 0.251 | – | 0.312 | 0.151 | 0.164 | 0.165 | 0.134 | 0.167 | 0.387 | 0.34 | 0.351 | 0.249 | 0.358 | 0.377 | 0.361 | 0.315 | 0.218 | 0.249 |
| NCI-H1915 | 0.772 | 0.696 | 0.83 | 0.739 | 0.739 | 0.697 | 0.698 | 0.824 | 0.696 | 0.778 | 0.298 | 0.289 | 0.329 | 0.286 | 0.296 | 0.672 | 0.538 | 0.669 | 0.631 | 0.639 |
| NCI-H1944 | 1.02 | 0.953 | 1.03 | 0.887 | 0.821 | 0.775 | 0.621 | 0.858 | 0.546 | 0.589 | 0.223 | 0.191 | 0.238 | 0.172 | 0.182 | 0.57 | 0.522 | 0.499 | 0.381 | 0.417 |
| NCI-H1975 | 0.919 | 1.05 | 1.17 | 0.856 | 0.786 | 0.171 | 0.272 | 0.17 | 0.162 | 0.224 | 0.312 | 0.327 | 0.389 | 0.289 | 0.235 | 0.621 | 0.631 | 0.676 | 0.477 | 0.363 |
| NCI-H1993 | 0.779 | 0.784 | – | – | 0.654 | 0.509 | 0.711 | 0.737 | 0.571 | 0.616 | 0.514 | 0.543 | 0.442 | 0.348 | 0.542 | 0.454 | 0.734 | 0.717 | 0.427 | 0.55 |
| NCI-H2085 | 0.803 | 0.585 | 0.538 | 0.395 | 0.462 | 0.36 | 0.194 | 0.22 | 0.22 | 0.346 | 0.203 | 0.159 | 0.21 | 0.198 | 0.216 | 0.522 | 0.372 | 0.41 | 0.289 | 0.341 |
| NCI-H2087 | 0.847 | 0.909 | 0.966 | 0.818 | 0.895 | 0.183 | 0.161 | 0.213 | – | 0.16 | 0.722 | 0.822 | 0.951 | – | 0.74 | 1.35 | 1.35 | 1.46 | 0.887 | 1.09 |
| NCI-H2126 | 0.744 | 0.671 | 0.727 | 0.571 | 0.543 | 0.933 | 0.836 | 0.841 | 0.373 | 0.68 | 0.542 | 0.578 | 0.568 | 0.284 | 0.317 | 1.02 | 0.849 | 1.02 | 0.795 | 0.762 |
| NCI-H2170 | 0.502 | 0.558 | 0.594 | 0.444 | 0.476 | 0.712 | 0.508 | 0.697 | 0.485 | 0.521 | 0.482 | 0.424 | 0.585 | 0.544 | 0.486 | 0.806 | 0.788 | 0.785 | 0.615 | 0.566 |
| NCI-H2347 | – | 0.423 | 0.445 | 0.283 | 0.235 | 0.329 | 0.231 | 0.583 | 0.27 | 0.281 | 0.271 | 0.244 | 0.262 | 0.298 | 0.281 | 0.502 | 0.464 | 0.332 | 0.32 | 0.373 |
| NCI-H2405 | 0.488 | – | 0.778 | 0.489 | 0.509 | 0.367 | – | 0.612 | 0.261 | 0.385 | 0.161 | – | 0.232 | 0.206 | 0.191 | 0.563 | 0.658 | 0.697 | 0.388 | 0.374 |
| NCI-H3122 | 0.96 | 1.01 | 1.07 | 0.894 | 0.97 | 0.094 | 0.0817 | 0.108 | 0.0814 | 0.0719 | 0.775 | 0.828 | 0.94 | 0.361 | 0.695 | 0.956 | 0.987 | 1.05 | 0.696 | 0.777 |
| PC-3 [JPC-3] | 0.727 | 0.665 | 0.851 | 0.756 | 0.679 | 0.634 | 0.689 | 0.655 | 0.509 | 0.588 | 0.887 | 0.959 | 0.898 | 0.769 | 0.791 | 0.872 | 0.715 | 0.741 | 0.367 | 0.413 |
| PC-14 | 0.926 | 1 | 1.04 | 0.879 | 0.96 | 0.156 | 0.16 | 0.145 | – | 0.142 | 0.245 | 0.281 | 0.239 | 0.197 | 0.16 | 0.417 | 0.302 | 0.324 | 0.26 | 0.194 |
| RERF-LC-KJ | 0.584 | 0.854 | 0.802 | 0.52 | 0.874 | 1.16 | 1.29 | 1.27 | 0.978 | 0.987 | 0.586 | 0.77 | 0.762 | 0.706 | 0.682 | 0.867 | 0.893 | – | 0.812 | 0.838 |
